# Measured values: ChEMBL document CHEMBL1130534, “Potent antiinflammatory 3-thiazole-4(5)-acetic acids of 1,2-benzisothiazole” (1997)
# Several values for one entry are separate records, joined by “and”; a condition that tells them apart may be missing. Equal values may be shown once.
# How the values were obtained:
# Type in all cases: functional
# Rattus norvegicus [1] = assay: Compound administered orally was tested for antiinflammatory activity in carrageenan-induced rat paw edema assay after 3.5 hours; set-up: concentration or dose not given beside the values
# Rattus norvegicus [2] = assay: Compound administered orally was tested for antiinflammatory activity in carrageenan-induced rat paw edema assay after 2 hours; set-up: concentration or dose not given beside the values
# Rattus norvegicus [3] = assay: Compound administered intraperitoneally was tested for antiinflammatory activity in carrageenan-induced rat paw edema assay after 2 hours; set-up: concentration or dose not given beside the values
# Rattus norvegicus [4] = assay: Compound administered intraperitoneally was tested for antiinflammatory activity in carrageenan-induced rat paw edema assay after 3.5 hours; set-up: concentration or dose not given beside the values
# Rattus norvegicus [5] = assay: Compound (50 mg/kg) administered intraperitoneally was tested for antiinflammatory activity in carrageenan induced rat paw edema assay after 2 hours
# Rattus norvegicus [6] = assay: Compound (50 mg/kg) administered orally was tested for antiinflammatory activity in carrageenan-induced rat paw edema assay after 2 hours
# Rattus norvegicus [7] = assay: Compound (50 mg/kg) administered intraperitoneally was tested for antiinflammatory activity in carrageenan induced rat paw edema assay after 3.5 hours
SMILES,Inhibition (Rattus norvegicus [1]),Inhibition (Rattus norvegicus [2]),Inhibition (Rattus norvegicus [3]),Inhibition (Rattus norvegicus [4]),Inhibition (Rattus norvegicus [5]),Inhibition (Rattus norvegicus [6]),Inhibition (Rattus norvegicus [7])
O=C(O)Cc1sc(-c2nsc3ccccc23)nc1-c1ccccc1,19%,15%,45%,7%,,,
CCOC(=O)Cc1sc(-c2nsc3ccccc23)nc1-c1ccc(Cl)cc1,22%,34%,24%,13%,,,
O=C(O)Cc1csc(-c2nsc3ccccc23)n1,46%,64%,55%,64%,,,
CC(C)Cc1ccc(C(C)C(=O)O)cc1 (configuration not stated) [IBUPROFEN],65%,62%,70%,74%,,,
COc1ccc(-c2nc(-c3nsc4ccccc34)sc2CC(=O)O)cc1,33%,36%,40%,24%,,,
O=C(O)Cc1sc(-c2nsc3ccccc23)nc1-c1ccc(Cl)cc1,62% and 61%,75%,78%,67%,76%,69%,64%
CCOC(=O)Cc1csc(-c2nsc3ccccc23)n1,11%,18%,,,,,
CCOC(=O)Cc1sc(-c2nsc3ccccc23)nc1-c1ccc(OC)cc1,29%,20%,34%,30%,,,
CCOC(=O)Cc1sc(-c2nsc3ccccc23)nc1-c1ccccc1,11%,<10%,<10%,<10%,,,
